According to ChEMBL document CHEMBL2177025, “Chemical proteomics-based analysis of off-target binding profiles for rosiglitazone and pioglitazone: clues for assessing potential for cardiotoxicity” (J Med Chem, 2012):
Activity calls are given as the source filed them.

Columns and labels:
[1] = target: Short-chain specific acyl-CoA dehydrogenase, mitochondrial (Rattus norvegicus) (UniProt P15651); test: Binding affinity to mitochondrial short-chain specific acyl-CoA dehydrogenase in Sprague-Dawley rat heart homogenate after 15 mins by chromatographic analysis; format: tissue-based
Short-chain specific acyl-CoA dehydrogenase, mitochondrial (Rattus norvegicus), sequence (P15651 whole entry): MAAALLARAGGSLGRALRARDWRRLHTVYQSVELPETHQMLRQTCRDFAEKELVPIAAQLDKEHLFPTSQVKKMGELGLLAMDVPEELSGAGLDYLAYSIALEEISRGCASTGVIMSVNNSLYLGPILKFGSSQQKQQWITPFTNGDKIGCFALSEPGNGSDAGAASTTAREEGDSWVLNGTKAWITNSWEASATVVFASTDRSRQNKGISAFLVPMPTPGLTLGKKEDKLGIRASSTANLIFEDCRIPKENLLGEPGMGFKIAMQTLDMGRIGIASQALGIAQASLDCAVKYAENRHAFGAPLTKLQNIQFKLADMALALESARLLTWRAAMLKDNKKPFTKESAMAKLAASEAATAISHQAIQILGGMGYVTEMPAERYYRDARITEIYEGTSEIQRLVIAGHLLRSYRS

[2] = target: Malate dehydrogenase, mitochondrial (Rattus norvegicus) (UniProt P04636); test: Binding affinity to mitochondrial malate dehydrogenase in Sprague-Dawley rat heart homogenate after 15 mins by chromatographic analysis; format: tissue-based
Malate dehydrogenase, mitochondrial (Rattus norvegicus), sequence (P04636 whole entry): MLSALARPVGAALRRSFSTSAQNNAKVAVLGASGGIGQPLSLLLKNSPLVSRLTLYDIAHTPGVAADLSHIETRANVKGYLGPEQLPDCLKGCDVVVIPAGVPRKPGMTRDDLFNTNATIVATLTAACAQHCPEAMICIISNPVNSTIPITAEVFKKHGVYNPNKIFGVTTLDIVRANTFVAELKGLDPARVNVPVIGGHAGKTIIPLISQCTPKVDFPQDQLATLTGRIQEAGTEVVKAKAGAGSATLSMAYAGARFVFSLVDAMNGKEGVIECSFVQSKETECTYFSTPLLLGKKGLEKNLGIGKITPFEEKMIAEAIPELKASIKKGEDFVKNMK

[3] = target: T1, Long-chain specific acyl-CoA dehydrogenase, mitochondrial (Rattus norvegicus) (UniProt P15650); test: Binding affinity to mitochondrial long-chain specific acyl-CoA dehydrogenase in Sprague-Dawley rat heart homogenate after 15 mins by chromatographic analysis relative to rosiglitazone; format: tissue-based
T1 sequence (whole entry): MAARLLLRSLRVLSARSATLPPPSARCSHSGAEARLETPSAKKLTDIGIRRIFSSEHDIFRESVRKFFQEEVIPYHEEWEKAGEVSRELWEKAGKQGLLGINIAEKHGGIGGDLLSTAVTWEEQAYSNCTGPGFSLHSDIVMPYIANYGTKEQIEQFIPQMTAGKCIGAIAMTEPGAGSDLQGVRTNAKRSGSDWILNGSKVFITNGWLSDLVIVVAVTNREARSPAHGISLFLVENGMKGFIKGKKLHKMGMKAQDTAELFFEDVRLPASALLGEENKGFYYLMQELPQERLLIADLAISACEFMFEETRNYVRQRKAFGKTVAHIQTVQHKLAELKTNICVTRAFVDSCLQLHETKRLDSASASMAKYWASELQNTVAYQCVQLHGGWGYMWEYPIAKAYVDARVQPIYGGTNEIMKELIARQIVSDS

[4] = target: Hydroxyacyl-coenzyme A dehydrogenase, mitochondrial (Rattus norvegicus) (UniProt Q9WVK7); test: Binding affinity to mitochondrial short-chain L-3-hydroxyacyl-coenzyme A dehydrogenase in Sprague-Dawley rat heart homogenate after 15 mins by chromatographic analysis; format: tissue-based
[5] = target: L-lactate dehydrogenase A chain (Rattus norvegicus) (UniProt P04642); test: Binding affinity to L-lactate dehydrogenase A chain in Sprague-Dawley rat heart homogenate after 15 mins by chromatographic analysis; format: tissue-based
[6] = target: Malate dehydrogenase, cytoplasmic (Mus musculus) (UniProt P14152); test: Binding affinity to mouse cytoplasmic malate dehydrogenase by chromatographic analysis
Malate dehydrogenase, cytoplasmic (Mus musculus), sequence (P14152 whole entry): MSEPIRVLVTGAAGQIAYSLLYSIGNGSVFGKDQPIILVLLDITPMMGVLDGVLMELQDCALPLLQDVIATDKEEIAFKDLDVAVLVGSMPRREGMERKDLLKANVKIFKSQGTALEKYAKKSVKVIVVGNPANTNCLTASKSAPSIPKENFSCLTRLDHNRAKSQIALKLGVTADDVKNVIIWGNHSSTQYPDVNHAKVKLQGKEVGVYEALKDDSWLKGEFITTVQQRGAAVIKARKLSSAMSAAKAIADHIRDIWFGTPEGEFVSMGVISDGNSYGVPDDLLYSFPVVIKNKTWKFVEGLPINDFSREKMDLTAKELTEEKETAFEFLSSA

[7] = target: Dihydrolipoyllysine-residue succinyltransferase component of 2-oxoglutarate dehydrogenase complex, mitochondrial (Mus musculus) (UniProt Q9D2G2); test: Binding affinity to mouse mitochondrial dihydrolipoyllysine-residue succinyltransferase component of 2-oxoglutarate dehydrogenase complex by chromatographic analysis
[8] = target: Glutamate dehydrogenase 1, mitochondrial (Rattus norvegicus) (UniProt P10860); test: Binding affinity to mitochondrial glutamate dehydrogenase 1 in Sprague-Dawley rat heart homogenate after 15 mins by chromatographic analysis; format: tissue-based
Glutamate dehydrogenase 1, mitochondrial (Rattus norvegicus), sequence (P10860 whole entry): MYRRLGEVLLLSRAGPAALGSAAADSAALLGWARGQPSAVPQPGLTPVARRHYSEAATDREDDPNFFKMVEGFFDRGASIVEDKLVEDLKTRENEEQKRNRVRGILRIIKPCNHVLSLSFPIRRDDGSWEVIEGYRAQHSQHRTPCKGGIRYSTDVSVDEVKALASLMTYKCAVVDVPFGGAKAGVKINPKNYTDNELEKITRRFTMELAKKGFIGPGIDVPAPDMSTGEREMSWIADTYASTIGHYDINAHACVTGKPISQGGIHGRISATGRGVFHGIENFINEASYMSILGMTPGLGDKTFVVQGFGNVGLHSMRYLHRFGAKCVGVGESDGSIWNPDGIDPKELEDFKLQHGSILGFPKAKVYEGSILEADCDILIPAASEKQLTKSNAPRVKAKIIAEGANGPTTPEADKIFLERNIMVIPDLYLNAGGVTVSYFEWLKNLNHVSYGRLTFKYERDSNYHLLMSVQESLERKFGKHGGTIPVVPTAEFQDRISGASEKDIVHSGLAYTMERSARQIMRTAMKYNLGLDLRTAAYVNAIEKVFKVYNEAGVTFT

[9] = target: Glyceraldehyde-3-phosphate dehydrogenase (Rattus norvegicus) (UniProt P04797); test: Binding affinity to glyceraldehyde 3-phosphate dehydrogenase in Sprague-Dawley rat heart homogenate after 15 mins by chromatographic analysis; format: tissue-based
Glyceraldehyde-3-phosphate dehydrogenase (Rattus norvegicus), sequence (P04797 whole entry): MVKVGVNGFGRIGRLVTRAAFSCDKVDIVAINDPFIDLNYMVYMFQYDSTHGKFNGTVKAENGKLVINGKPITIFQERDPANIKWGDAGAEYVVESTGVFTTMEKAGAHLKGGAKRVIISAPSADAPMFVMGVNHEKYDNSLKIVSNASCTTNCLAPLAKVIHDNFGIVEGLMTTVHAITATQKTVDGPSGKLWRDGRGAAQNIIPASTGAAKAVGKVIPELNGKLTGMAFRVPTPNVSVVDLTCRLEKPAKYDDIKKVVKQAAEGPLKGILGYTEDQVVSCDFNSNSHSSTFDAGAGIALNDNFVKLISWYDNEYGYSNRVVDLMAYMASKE

[10] = target: L-lactate dehydrogenase B chain (Rattus norvegicus) (UniProt P42123); test: Binding affinity to L-lactate dehydrogenase B chain in Sprague-Dawley rat heart homogenate after 15 mins by chromatographic analysis relative to rosiglitazone; format: tissue-based
L-lactate dehydrogenase B chain (Rattus norvegicus), sequence (P42123 whole entry): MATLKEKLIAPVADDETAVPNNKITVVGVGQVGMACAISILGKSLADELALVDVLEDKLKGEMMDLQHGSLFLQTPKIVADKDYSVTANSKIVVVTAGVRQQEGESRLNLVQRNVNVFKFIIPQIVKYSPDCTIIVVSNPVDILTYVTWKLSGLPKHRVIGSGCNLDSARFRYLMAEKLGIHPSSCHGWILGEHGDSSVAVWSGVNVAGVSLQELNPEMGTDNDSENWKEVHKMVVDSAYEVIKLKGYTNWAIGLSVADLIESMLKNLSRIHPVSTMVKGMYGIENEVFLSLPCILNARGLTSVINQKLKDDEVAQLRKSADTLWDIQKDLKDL

[11] = target: Medium-chain specific acyl-CoA dehydrogenase, mitochondrial (Rattus norvegicus) (UniProt P08503); test: Binding affinity to mitochondrial medium-chain specific acyl-CoA dehydrogenase in Sprague-Dawley rat heart homogenate after 15 mins by chromatographic analysis; format: tissue-based
Medium-chain specific acyl-CoA dehydrogenase, mitochondrial (Rattus norvegicus), sequence (P08503 whole entry): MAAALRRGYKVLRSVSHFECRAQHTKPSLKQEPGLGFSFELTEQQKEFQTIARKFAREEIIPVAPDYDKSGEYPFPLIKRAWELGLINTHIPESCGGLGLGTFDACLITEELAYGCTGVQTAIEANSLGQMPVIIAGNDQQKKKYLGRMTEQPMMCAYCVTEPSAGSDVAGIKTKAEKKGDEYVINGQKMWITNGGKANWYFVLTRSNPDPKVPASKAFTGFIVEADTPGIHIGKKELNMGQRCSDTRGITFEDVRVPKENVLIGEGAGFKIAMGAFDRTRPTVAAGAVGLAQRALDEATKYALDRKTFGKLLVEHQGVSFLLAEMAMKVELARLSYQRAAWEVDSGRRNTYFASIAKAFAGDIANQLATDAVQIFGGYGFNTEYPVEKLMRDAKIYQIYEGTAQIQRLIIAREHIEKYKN

[12] = target: Very long-chain specific acyl-CoA dehydrogenase, mitochondrial (Rattus norvegicus) (UniProt P45953); test: Binding affinity to mitochondrial very long-chain specific acyl-CoA dehydrogenase in Sprague-Dawley rat heart homogenate after 15 mins by chromatographic analysis; format: tissue-based
Very long-chain specific acyl-CoA dehydrogenase, mitochondrial (Rattus norvegicus), sequence (P45953 whole entry): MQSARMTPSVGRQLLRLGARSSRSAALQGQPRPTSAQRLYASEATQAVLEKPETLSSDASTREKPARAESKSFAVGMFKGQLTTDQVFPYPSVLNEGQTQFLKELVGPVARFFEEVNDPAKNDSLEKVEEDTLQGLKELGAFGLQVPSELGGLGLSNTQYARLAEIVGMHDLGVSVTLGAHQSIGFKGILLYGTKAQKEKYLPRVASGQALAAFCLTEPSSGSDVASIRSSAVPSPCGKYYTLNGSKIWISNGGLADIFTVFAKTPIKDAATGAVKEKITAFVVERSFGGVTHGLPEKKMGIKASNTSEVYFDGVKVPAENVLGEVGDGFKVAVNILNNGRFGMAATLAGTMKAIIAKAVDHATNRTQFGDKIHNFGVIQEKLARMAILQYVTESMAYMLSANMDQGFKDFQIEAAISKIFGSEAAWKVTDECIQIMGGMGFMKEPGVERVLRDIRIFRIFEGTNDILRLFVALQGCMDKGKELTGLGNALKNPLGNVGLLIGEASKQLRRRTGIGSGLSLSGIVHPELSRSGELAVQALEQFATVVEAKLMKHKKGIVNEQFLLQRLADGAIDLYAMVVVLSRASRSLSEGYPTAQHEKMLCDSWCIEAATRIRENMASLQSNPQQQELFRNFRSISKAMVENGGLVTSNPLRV

[13] = target: Pyruvate dehydrogenase E1 component subunit alpha, somatic form, mitochondrial (Rattus norvegicus) (UniProt P26284); test: Binding affinity to mitochondrial pyruvate dehydrogenase E1 component subunit alpha in Sprague-Dawley rat heart homogenate after 15 mins by chromatographic analysis; format: tissue-based
Pyruvate dehydrogenase E1 component subunit alpha, somatic form, mitochondrial (Rattus norvegicus), sequence (P26284 whole entry): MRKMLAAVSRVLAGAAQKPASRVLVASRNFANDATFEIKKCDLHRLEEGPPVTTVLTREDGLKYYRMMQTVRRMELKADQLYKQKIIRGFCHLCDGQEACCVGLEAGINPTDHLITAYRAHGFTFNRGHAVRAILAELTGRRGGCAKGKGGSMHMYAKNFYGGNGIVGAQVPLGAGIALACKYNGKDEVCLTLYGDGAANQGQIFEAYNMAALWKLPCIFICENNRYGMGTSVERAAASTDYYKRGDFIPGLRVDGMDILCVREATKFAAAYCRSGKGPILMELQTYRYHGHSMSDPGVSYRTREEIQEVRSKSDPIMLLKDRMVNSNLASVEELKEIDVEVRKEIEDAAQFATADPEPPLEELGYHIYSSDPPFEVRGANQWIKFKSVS

[14] = target: 2-oxoglutarate dehydrogenase complex component E1 (Mus musculus) (UniProt Q60597); test: Binding affinity to mouse mitochondrial 2-oxoglutarate dehydrogenase E1 component by chromatographic analysis
2-oxoglutarate dehydrogenase complex component E1 (Mus musculus), sequence (Q60597 whole entry, one chain of several): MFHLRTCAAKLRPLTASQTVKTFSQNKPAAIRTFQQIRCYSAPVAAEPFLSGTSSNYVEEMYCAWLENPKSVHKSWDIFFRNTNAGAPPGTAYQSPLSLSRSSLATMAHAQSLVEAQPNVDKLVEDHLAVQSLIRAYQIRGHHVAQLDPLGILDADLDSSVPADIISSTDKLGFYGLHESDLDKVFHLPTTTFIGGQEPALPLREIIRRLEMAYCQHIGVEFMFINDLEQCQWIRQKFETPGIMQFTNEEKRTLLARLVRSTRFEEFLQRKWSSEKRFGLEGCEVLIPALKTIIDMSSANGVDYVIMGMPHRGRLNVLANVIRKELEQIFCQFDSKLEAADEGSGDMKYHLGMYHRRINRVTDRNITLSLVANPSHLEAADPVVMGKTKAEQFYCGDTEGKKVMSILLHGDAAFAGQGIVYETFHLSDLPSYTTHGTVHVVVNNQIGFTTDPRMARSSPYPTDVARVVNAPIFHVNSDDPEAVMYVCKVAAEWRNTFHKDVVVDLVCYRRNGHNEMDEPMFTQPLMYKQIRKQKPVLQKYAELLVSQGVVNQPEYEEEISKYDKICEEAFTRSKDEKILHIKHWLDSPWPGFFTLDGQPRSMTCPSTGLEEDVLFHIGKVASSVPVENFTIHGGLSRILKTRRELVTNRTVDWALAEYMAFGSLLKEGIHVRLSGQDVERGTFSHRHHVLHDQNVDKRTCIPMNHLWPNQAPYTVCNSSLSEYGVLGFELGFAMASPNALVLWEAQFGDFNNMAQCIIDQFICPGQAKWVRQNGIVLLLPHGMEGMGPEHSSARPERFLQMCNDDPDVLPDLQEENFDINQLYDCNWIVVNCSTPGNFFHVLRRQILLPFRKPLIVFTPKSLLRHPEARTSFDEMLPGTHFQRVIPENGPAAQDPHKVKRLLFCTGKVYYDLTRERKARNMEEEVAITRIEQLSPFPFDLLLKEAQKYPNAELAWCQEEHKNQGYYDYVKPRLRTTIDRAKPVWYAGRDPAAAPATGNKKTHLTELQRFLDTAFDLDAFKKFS

[15] = target: T2, Dihydrolipoyl dehydrogenase, mitochondrial (Mus musculus) (UniProt O08749); test: Binding affinity to mouse mitochondrial dihydrolipoyl dehydrogenase by chromatographic analysis relative to rosiglitazone
T2 sequence (whole entry): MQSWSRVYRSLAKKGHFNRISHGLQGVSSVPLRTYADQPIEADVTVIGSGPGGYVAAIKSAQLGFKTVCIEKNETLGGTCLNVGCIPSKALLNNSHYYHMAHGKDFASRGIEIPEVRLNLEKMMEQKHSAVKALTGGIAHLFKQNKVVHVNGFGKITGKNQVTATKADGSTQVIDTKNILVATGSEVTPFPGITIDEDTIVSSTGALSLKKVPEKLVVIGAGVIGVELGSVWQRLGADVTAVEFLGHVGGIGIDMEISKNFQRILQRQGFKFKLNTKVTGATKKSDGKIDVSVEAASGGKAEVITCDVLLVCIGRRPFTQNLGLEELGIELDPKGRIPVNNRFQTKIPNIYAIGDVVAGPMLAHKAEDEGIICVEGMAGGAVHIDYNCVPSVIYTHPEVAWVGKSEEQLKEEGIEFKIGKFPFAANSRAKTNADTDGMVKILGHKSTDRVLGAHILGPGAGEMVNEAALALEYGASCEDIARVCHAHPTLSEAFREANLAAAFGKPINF

[16] = target: Isocitrate dehydrogenase [NADP], mitochondrial (Mus musculus) (UniProt P54071); test: Binding affinity to mouse mitochondrial isocitrate dehydrogenase by chromatographic analysis

Measured: Activity

O=C1NC(=O)C(Cc2ccc(O)cc2)S1 (stereo unspecified)
active: [1] | [2] | [3] | [4] | [5] | [6] | [7] | [8] | [9] | [10] | [11] | [12] | [13] | [14] | [15] | [16]
